In patent US20060058361A1, “Therapeutic diphenyl ether ligands” (Pfizer Inc, priority 2004, published 2006):

A melting point of 178 to 180 °C was found for `CNC(C)c1cc(F)c(Cl)cc1Oc1ccc(Cl)cc1F` (centres unmarked) [Example 41, {1-[4-Chloro-2-(4-chloro-2-fluorophenoxy)-5-fluorophenyl]ethyl}-methylamine] in this work. A melting point of 220 to 222 °C was found for `CNCc1cc(C)c([S+](C)[O-])cc1Oc1ccc(Cl)c(C)c1C` (centres unmarked) [Example 19, [2-(4-Chloro-2,3-dimethylphenoxy)-4-methanesulfinyl-5-methylbenzyl]methylamine] in this work. A melting point of 186 to 188 °C was found for `CNCc1ccc(OC)cc1Oc1ccc(Cl)cc1F` [Example 46, [2-(4-Chloro-2-fluorophenoxy)-4-methoxy-benzyl]methylamine] in this work. A melting point of 204 to 206 °C was found for `CNCc1ccc(Cl)cc1Oc1ccc(F)c2c1CCC2` [Example 57, [4-Chloro-2-(7-fluoroindan-4-yloxy)benzyl]methylamine] in this work. A melting point of 158 to 160 °C was found for `CCSc1ccc(CNC)c(Oc2ccc(Cl)cc2)c1` [Example 60, [2-(4-Chlorophenoxy)-4-ethylsulfanylbenzyl]methylamine] in this work. A melting point of 212 to 214 °C was found for `CNCc1cc(C)c(Cl)cc1Oc1ccc(Cl)cc1F` [Example 43, [4-Chloro-2-(4-chloro-2-fluorophenoxy)-5-methylbenzyl]methylamine] in this work. A melting point of 88 to 90 °C was found for `CNCc1ccc(S(C)(=O)=O)cc1Oc1ccc2c(c1)CCC2` [Example 58, [2-(Indan-5-yloxy)-4-methanesulfonylbenzyl]methylamine] in this work. A melting point of 204 to 206 °C was found for `CNCc1ccc(Br)cc1Oc1ccc(Cl)cc1F` [Example 50, [4-Bromo-2-(4-chloro-2-fluorophenoxy)benzyl]methylamine] in this work. A melting point of 198 to 220 °C was found for `CNCc1ccc(C)cc1Oc1ccc(Cl)cc1F` [Example 47, [2-(4-Chloro-2-fluorophenoxy)-4-methylbenzyl]methylamine] in this work. A melting point of 134 to 136 °C was found for `CNCc1cc(C)c(C)cc1Oc1ccc(Cl)cc1F` [Example 45, [2-(4-Chloro-2-fluorophenoxy)-4,5-dimethylbenzyl]methylamine] in this work. A melting point of 184 to 186 °C was found for `CNCc1cc(F)c(S(C)(=O)=O)cc1Oc1ccc(Cl)cc1F` [Example 52, [2-(4-Chloro-2-fluorophenoxy)-5-fluoro-4-methanesulfonylbenzyl]methylamine] in this work.
